Measured values reported in PMC3875304 (Journal of medicinal chemistry, 2009).
“Also recorded” adds a separate entry of the source. Where two headings read alike, the source gives them in different places.

Tests used:
[1] = molecular target: T1, M1 (Homo sapiens, UniProt P11229); experiment: Ca2+ mobilization potentiation of ACh ~EC20, M1 CHO cells; assay type: cell-based
T1 sequence (P11229 1-460): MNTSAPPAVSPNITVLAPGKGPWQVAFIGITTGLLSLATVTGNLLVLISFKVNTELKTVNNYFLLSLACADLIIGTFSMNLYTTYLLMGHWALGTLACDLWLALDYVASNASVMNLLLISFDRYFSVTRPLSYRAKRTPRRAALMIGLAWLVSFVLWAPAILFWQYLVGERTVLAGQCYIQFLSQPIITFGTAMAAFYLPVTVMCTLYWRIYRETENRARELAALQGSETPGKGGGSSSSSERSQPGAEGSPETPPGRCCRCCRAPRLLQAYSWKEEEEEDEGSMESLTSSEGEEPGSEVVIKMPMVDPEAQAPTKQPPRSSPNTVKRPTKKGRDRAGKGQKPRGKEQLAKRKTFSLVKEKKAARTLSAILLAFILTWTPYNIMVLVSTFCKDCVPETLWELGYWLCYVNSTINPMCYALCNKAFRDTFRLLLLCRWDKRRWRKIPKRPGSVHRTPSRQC

[2] = molecular target: T2, M5 (Homo sapiens, UniProt P08912); experiment: Ca2+ mobilization assay, M5 CHO cells; assay type: cell-based
T2 sequence (P08912 1-532): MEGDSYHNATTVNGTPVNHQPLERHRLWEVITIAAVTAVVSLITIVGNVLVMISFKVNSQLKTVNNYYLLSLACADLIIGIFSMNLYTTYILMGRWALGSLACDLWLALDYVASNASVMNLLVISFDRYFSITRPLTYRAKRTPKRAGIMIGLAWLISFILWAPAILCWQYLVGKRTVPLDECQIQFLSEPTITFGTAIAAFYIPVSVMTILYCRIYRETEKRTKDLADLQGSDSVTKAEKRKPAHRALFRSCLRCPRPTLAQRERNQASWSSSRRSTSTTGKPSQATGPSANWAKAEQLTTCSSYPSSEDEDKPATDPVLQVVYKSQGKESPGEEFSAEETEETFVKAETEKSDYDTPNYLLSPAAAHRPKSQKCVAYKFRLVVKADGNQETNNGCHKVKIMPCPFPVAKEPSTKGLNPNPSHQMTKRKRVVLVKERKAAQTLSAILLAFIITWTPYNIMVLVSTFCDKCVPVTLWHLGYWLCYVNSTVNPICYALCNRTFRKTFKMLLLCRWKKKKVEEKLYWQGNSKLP

[3] = molecular target: T2, M5; experiment: [3H]-NMS competition binding, M5-CHO membrane preparations; settings: up to 30 µM, M5-CHO membranes
[4] = molecular target: T3, M4 (Homo sapiens, UniProt P08173); assay type: cell-based; settings: for M4 potentiator activity: fixed ACh ~EC20, Ca2+ assay, Gqi5 cotransfected, up to 30 µM
T3 sequence (P08173 1-479): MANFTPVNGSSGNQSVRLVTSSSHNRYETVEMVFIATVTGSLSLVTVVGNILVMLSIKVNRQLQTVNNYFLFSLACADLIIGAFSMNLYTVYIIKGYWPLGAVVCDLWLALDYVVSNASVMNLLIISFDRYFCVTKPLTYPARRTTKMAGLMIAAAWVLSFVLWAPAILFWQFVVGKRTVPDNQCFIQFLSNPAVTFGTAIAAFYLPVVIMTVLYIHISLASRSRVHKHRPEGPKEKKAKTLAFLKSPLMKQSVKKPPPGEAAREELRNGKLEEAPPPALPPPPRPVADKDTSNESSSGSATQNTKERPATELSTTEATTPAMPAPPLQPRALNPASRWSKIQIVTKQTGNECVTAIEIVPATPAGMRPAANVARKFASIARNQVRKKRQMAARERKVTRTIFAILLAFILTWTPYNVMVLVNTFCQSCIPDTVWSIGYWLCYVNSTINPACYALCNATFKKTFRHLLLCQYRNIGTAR

[5] = molecular target: T4, M2 (Homo sapiens, UniProt P08172); assay type: cell-based; settings: fixed ACh ~EC20, Ca2+ assay, Gqi5 cotransfected, up to 30 µM
T4 sequence (P08172 1-466): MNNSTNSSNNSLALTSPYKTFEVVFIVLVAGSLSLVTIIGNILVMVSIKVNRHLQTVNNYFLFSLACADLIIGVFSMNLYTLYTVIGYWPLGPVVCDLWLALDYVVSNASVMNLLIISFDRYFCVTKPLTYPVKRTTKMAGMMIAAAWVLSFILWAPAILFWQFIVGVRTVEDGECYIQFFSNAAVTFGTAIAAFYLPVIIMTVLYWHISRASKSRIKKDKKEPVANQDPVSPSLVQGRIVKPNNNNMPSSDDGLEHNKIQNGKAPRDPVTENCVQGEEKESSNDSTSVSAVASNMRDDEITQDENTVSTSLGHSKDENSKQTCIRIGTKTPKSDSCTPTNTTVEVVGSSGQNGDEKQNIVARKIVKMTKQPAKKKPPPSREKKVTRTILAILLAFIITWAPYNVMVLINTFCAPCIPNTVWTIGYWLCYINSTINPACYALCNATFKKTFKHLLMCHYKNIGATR

[6] = molecular target: T1, M1; settings: fixed 30 µM compound, at M1; cited from earlier work

Question: With `COc1ccc(CN2C(=O)C(=O)c3ccccc32)cc1` [compound 22] as the compound, how does the EC50 [1] read?
Answer: Its EC50 is over 10 µM.

Question: With `COc1cccc(CN2C(=O)C(=O)c3c(Cl)ccc(Cl)c32)c1` [compound 38] as the compound, how does the EC50 [1] read?
Answer: The EC50 was over 30 µM.

Question: With `COc1cccc(CN2C(=O)C(=O)c3cc(OC(F)(F)F)ccc32)c1` [compound 41] as the compound, how does the EC50 [1] read?
Answer: The EC50 was over 30 µM.

Question: For `COc1ccc(CN2C(=O)C(=O)c3cc(OC(F)(F)F)ccc32)cc1` [compound 42], which EC50 [1] is on record?
Answer: Its EC50 is over 30 µM.

Question: And the “intrinsic agonist activity at M5” value ([2]; compound alone, absence of ACh, up to 30 µM, Ca2+ assay)?
Answer: The value was “absence of intrinsic agonist activity; also recorded: lacked intrinsic agonist activity”.

Question: And the “selectivity for M5 versus M1 and M3” value ([2]; from EC50 in Ca2+ assays)?
Answer: The value was over 30 fold.

Question: And the “selectivity for M5 versus the other four subtypes” value ([2]; from EC50 in Ca2+ assays)?
Answer: Its value is over 30 ×.

Question: What about the “competition with [3H]-NMS binding to M5” value [3] of the same compound?
Answer: Its value is “lack of competition; also recorded: lacked competition”.

Question: What about the M4 potentiator activity [4] of the same compound?
Answer: The M4 potentiator activity was “lack of potentiation activity; also recorded: inactive”.

Question: And the M4 potentiator activity ([4]; listed as VU0238429)?
Answer: The M4 potentiator activity was “no M2 or M4 potentiator activity”.

Question: What about the M2 potentiator activity [5] of the same compound?
Answer: The M2 potentiator activity was “lack of potentiation activity; also recorded: inactive”.

Question: And the M2 potentiator activity ([5]; listed as VU0238429)?
Answer: The M2 potentiator activity was “no M2 or M4 potentiator activity”.

Question: With `O=C1C(=O)N(Cc2ccccc2C(F)(F)F)c2c(F)cccc21` [compound 49] as the compound, how does the EC50 [1] read?
Answer: The EC50 was over 30 µM.

Question: With `O=C1C(=O)N(Cc2ccc(C(F)(F)F)cc2)c2c(Cl)cccc21` [compound 56] as the compound, how does the EC50 [4] read?
Answer: Its EC50 is over 10 µM.

Question: What about the M4 potentiator activity [4] of the same compound?
Answer: The M4 potentiator activity was “modest potentiation”.

Question: What about the M2 potentiator activity [5] of the same compound?
Answer: The M2 potentiator activity was “modest potentiation”.

Question: For `O=C1C(=O)N(Cc2ccccc2Cl)c2ccc(OC(F)(F)F)cc21` [compound 64], which EC50 [1] is on record?
Answer: Its EC50 is over 30 µM.

Question: With `O=C1C(=O)N(Cc2ccc(OC(F)(F)F)cc2)c2ccc(OC(F)(F)F)cc21` [compound 110] as the compound, how does the EC50 [1] read?
Answer: The EC50 was over 30 µM.

Question: Which EC50 [1] does the source give for `Cc1ccccc1CN1C(=O)C(=O)c2cc(OC(F)(F)F)ccc21` [compound 111] here?
Answer: Its EC50 is over 30 µM.

Question: For `O=C1C(=O)N(Cc2ccc(Br)cc2F)c2ccc(OC(F)(F)F)cc21` [compound 112], which EC50 [1] is on record?
Answer: Its EC50 is over 30 µM.

Question: What does the source list for `O=C1C(=O)N(Cc2ccc(Br)cc2)c2ccccc21` [compound 113]?
Answer: M4 potentiator activity [4]: lacked potentiator effects; also recorded: inactive; leftward shift of full ACh CRC [6]: 14 fold; M2 potentiator activity [5]: lacked potentiator effects; also recorded: inactive
